Measured values taken from patent US6737383B1, “Herbicidal oxadiazolidines” (priority 1999, dated 2004).

What was measured:
[1] = test system: soybean; experiment: Test B pre/postemergence soybean; type: in vivo, Glycine max
Method in brief: (§1)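 Herbicidal effect was estimated by eye on a ten-point control scale after plants spent twelve to sixteen days in a greenhouse following soil or foliar treatment. Foliar sprays targeted plants at one to four leaves; all doses were formulated in a non-phytotoxic solvent with surfactant.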

[2] = test system: rice; experiment: Test B flood test rice; type: in vivo, Oryza sativa
Method in brief: (§2)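 Read-out is a visual response score from 0 (no effect) to 10 (complete control), assigned by comparison with untreated controls. Treatment was applied at the 2-leaf stage, and plants stayed in the greenhouse for twelve to sixteen days before scoring.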

[3] = test system: wheat; experiment: Test B pre/postemergence wheat; type: in vivo, Triticum aestivum
Method in brief: as §1

[4] = test system: bamyardgrass; experiment: Test B flood test barnyardgrass; type: in vivo, Echinochloa crus-galli
Method in brief: as §2

[5] = test system: bedstraw; experiment: Test B pre/postemergence bedstraw; type: in vivo, Galium aparine; conditions: Rate 62 g/ha, Postemergence; scale 0 to 10, 0 no effect, 10 complete control
Method in brief: as §1

[6] = test system: cocklebur; experiment: Test B pre/postemergence cocklebur; type: in vivo, Xanthium strumarium
Method in brief: as §1

[7] = test system: rape; experiment: Test B pre/postemergence rape; type: in vivo, Brassica napus
Method in brief: as §1

[8] = test system: sugar beet; experiment: Test B pre/postemergence sugar beet; type: in vivo, Beta vulgaris
Method in brief: as §1

[9] = test system: surinam grass; experiment: Test B pre/postemergence surinam grass; type: in vivo, Brachiaria decumbens
Method in brief: as §1

[10] = test system: duck salad; experiment: Test B flood test duck salad; type: in vivo, Heteranthera limosa
Method in brief: as §2

[11] = test system: velvetleaf; experiment: Test B pre/postemergence velvetleaf; type: in vivo, Abutilon theophrasti
Method in brief: as §1

[12] = test system: blackgrass; experiment: Test B pre/postemergence blackgrass; type: in vivo, Alopecurus myosuroides
Method in brief: as §1

[13] = test system: corn; experiment: Test B pre/postemergence corn; type: in vivo, Zea mays
Method in brief: as §1

[14] = test system: purple nutsedge; experiment: Test B pre/postemergence purple nutsedge; type: in vivo, Cyperus rotundus
Method in brief: as §1

[15] = test system: wild oat; experiment: Test B pre/postemergence wild oat; type: in vivo, Avena fatua
Method in brief: as §1

[16] = test system: crabgrass; experiment: Test B pre/postemergence crabgrass; type: in vivo, Digitaria sanguinalis
Method in brief: as §1

[17] = test system: smallflower flatsedge; experiment: Test B flood test smallflower flatsedge; type: in vivo, Cyperus difformis
Method in brief: as §2

[18] = Postemergence, Rate 250 g/ha, scale 0 to 10
[19] = Postemergence, Rate 500 g/ha, scale of 0 to 10 where 0 is no effect and 10 is complete control
[20] = Preemergence, Rate 62 g/ha, scale of 0 to 10 where 0 is no effect and 10 is complete control
[21] = Preemergence, Rate 125 g/ha, scale of 0 to 10 where 0 is no effect and 10 is complete control
[22] = Preemergence, Rate 250 g/ha, scale 0 to 10, 0 is no effect, 10 is complete control
[23] = Preemergence, Rate 500 g/ha, scale 0 to 10, 0 is no effect, 10 is complete control
[24] = Rate 62 g/ha, Postemergence, scale 0 to 10, 0 no effect, 10 complete control
[25] = Rate 125 g/ha, Postemergence, scale 0 to 10, 0 is no effect, 10 is complete control
[26] = Rate 62 g/ha, flood test species, Pre-emergence, visual evaluation after twelve to sixteen days
[27] = Rate 125 g/ha, under heading Pre-emergence, flood test species, visual evaluation after twelve to sixteen days
[28] = Rate 250 g/ha, Pre-emergence (flood test species), scale 0 to 10, 0 is no effect, 10 is complete control
[29] = Rate 500 g/ha, Pre-emergence, flood test species, scale 0 to 10 (0 no effect, 10 complete control)

## Cc1nc(C)c(C(C)n2c(=O)on(C(=O)N(c3ccc(F)cc3F)C(C)C)c2=O)s1 (centres unmarked) [Compound 443]
[1]; [18]
  Soybean plant response rating: 1
[1]; [19]
  Soybean plant response rating: 2
[1]; [20]
  Plant response rating, Soybean: 0
[1]; [21]
  Plant response rating, Soybean: 0
[1]; [22]
  Soybean plant response rating: 0
[1]; [23]
  Soybean plant response rating: 0
[1]; [24]
  Soybean plant response rating: 1
[1]; [25]
  Soybean plant response rating: 1
[2]; [26]
  Plant response rating, Rice (0 to 10 scale, 0 is no effect, 10 is complete control): 0
[2]; [27]
  Rice plant response rating (0 to 10 scale, 0 is no effect, 10 is complete control): 0
[2]; [28]
  Rice plant response rating: 0
[2]; [29]
  Rice plant response rating: 0
[3]; [18]
  Wheat plant response rating: 0
[3]; [19]
  Wheat plant response rating: 0
[3]; [20]
  Plant response rating, Wheat: 0
[3]; [21]
  Plant response rating, Wheat: 0
[3]; [22]
  Wheat plant response rating: 0
[3]; [23]
  Wheat plant response rating: 0
[3]; [24]
  Wheat plant response rating: 0
[3]; [25]
  Wheat plant response rating: 0
[4]; [26]
  Plant response rating, Barnyardgrass (0 to 10 scale, 0 is no effect, 10 is complete control): 0
[4]; [27]
  Barnyardgrass plant response rating (0 to 10 scale, 0 is no effect, 10 is complete control): 0
[4]; [28]
  Barnyardgrass plant response rating: 0
[4]; [29]
  Barnyardgrass plant response rating: 0
[5]
  Bedstraw plant response rating: 0
[6]; [18]
  Cocklebur plant response rating: 0
[6]; [19]
  Cocklebur plant response rating: 0
[6]; [20]
  Plant response rating, Cocklebur: 0
[6]; [21]
  Plant response rating, Cocklebur: 0
[6]; [22]
  Cocklebur plant response rating: 0
[6]; [23]
  Cocklebur plant response rating: 0
[6]; [24]
  Cocklebur plant response rating: 0
[6]; [25]
  Cocklebur plant response rating: 0
[7]; [18]
  Rape plant response rating: 0
[7]; [19]
  Rape plant response rating: 0
[7]; [20]
  Plant response rating, Rape: 0
[7]; [21]
  Plant response rating, Rape: 0
[7]; [22]
  Rape plant response rating: 0
[7]; [23]
  Rape plant response rating: 0
[7]; [24]
  Rape plant response rating: 0
[7]; [25]
  Rape plant response rating: 0
[8]; [18]
  Sugarbeets plant response rating: 0
[8]; [19]
  Sugarbeets plant response rating: 0
[8]; [20]
  Plant response rating, Sugarbeets: 0
[8]; [21]
  Plant response rating, Sugarbeets: 0
[8]; [22]
  Sugarbeets plant response rating: 0
[8]; [23]
  Sugarbeets plant response rating: 0
[8]; [24]
  Sugarbeets plant response rating: 0
[8]; [25]
  Sugarbeets plant response rating: 0
[9]; Postemergence, Rate 250 g/ha, scale 0 to 10, 0 no effect, 10 complete control
  B. signalgrass plant response rating: 0
[9]; [19]
  B. signalgrass plant response rating: 0
[9]; [20]
  Plant response rating, B. signalgrass: 0
[9]; [21]
  Plant response rating, B. signalgrass: 0
[9]; [22]
  B. signalgrass plant response rating: 0
[9]; [23]
  B. signalgrass plant response rating: 10
[9]; [24]
  B. signalgrass plant response rating: 0
[9]; [25]
  B. signalgrass plant response rating: 0
[10]; [26]
  Plant response rating, Ducksalad (0 to 10 scale, 0 is no effect, 10 is complete control): 0
[10]; [27]
  Ducksalad plant response rating (0 to 10 scale, 0 is no effect, 10 is complete control): 0
[10]; [28]
  Ducksalad plant response rating: 0
[10]; [29]
  Ducksalad plant response rating: 0
[11]; [18]
  Velvetleaf plant response rating: 0
[11]; [19]
  Velvetleaf plant response rating: 0
[11]; [20]
  Plant response rating, Velvetleaf: 0
[11]; [21]
  Plant response rating, Velvetleaf: 0
[11]; [22]
  Velvetleaf plant response rating: 0
[11]; [23]
  Velvetleaf plant response rating: 0
[11]; [24]
  Velvetleaf plant response rating: 0
[11]; [25]
  Velvetleaf plant response rating: 0
[12]; [18]
  Blackgrass plant response rating: 0
[12]; [19]
  Blackgrass plant response rating: 0
[12]; [20]
  Plant response rating, Blackgrass: 0
[12]; [21]
  Plant response rating, Blackgrass: 0
[12]; [22]
  Blackgrass plant response rating: 0
[12]; [23]
  Blackgrass plant response rating: 0
[12]; [24]
  Blackgrass plant response rating: 0
[12]; [25]
  Blackgrass plant response rating: 0
[13]; [18]
  Corn plant response rating: 0
[13]; [19]
  Corn plant response rating: 0
[13]; [20]
  Plant response rating, Corn: 0
[13]; [21]
  Plant response rating, Corn: 0
[13]; [22]
  Corn plant response rating: 0
[13]; [23]
  Corn plant response rating: 0
[13]; [24]
  Corn plant response rating: 0
[13]; [25]
  Corn plant response rating: 0
[14]; [18]
  Nutsedge plant response rating: 0
[14]; [19]
  Nutsedge plant response rating: 0
[14]; [20]
  Plant response rating, Nutsedge: 0
[14]; [21]
  Plant response rating, Nutsedge: 0
[14]; [22]
  Nutsedge plant response rating: 0
[14]; [23]
  Nutsedge plant response rating: 0
[14]; [24]
  Nutsedge plant response rating: 0
[14]; [25]
  Nutsedge plant response rating: 0
[15]; [18]
  Wild oats plant response rating: 0
[15]; [19]
  Wild oats plant response rating: 0
[15]; [20]
  Plant response rating, Wild oats: 0
[15]; [21]
  Plant response rating, Wild oats: 0
[15]; [22]
  Wild oats plant response rating: 0
[15]; [23]
  Wild oats plant response rating: 0
[15]; [24]
  Wild oats plant response rating: 0
[15]; [25]
  Wild oats plant response rating: 0
[16]; [18]
  Crabgrass plant response rating: 0
[16]; [19]
  Crabgrass plant response rating: 0
[16]; [20]
  Plant response rating, Crabgrass: 5
[16]; [21]
  Plant response rating, Crabgrass: 6
[16]; [22]
  Crabgrass plant response rating: 9
[16]; [23]
  Crabgrass plant response rating: 9
[16]; [24]
  Crabgrass plant response rating: 0
[16]; [25]
  Crabgrass plant response rating: 0
[17]; [26]
  Plant response rating, S. Flatsedge (0 to 10 scale, 0 is no effect, 10 is complete control): 0
[17]; [27]
  S. Flatsedge plant response rating (0 to 10 scale, 0 is no effect, 10 is complete control): 0
[17]; [28]
  S. Flatsedge plant response rating: 0
[17]; [29]
  S. Flatsedge plant response rating: 0
